Patent US20070112018A1, “Treatment of peripheral arterial occlusive disease” (priority 2005, published 2007)

Assays:
C. trachomatis = assay: Cell culture protection against re-infection with C. trachomatis; assay type: cell-based; settings: single doses in cell culture
[1] = Phase 1 Study ABI-1648-006, single oral dose pharmacokinetics; settings: for half-life / Tmax / CL/F / AUC(0-inf) / Cmax: human, plasma; for AUC0−∞/Dose Mean / Cmax/Dose Mean: normalized to mg/kg
Protocol: Study ABI-1648-006 was conducted to evaluate the PK of single and multiple oral doses of 2.5, 5, 12.5, and 25 mg administered to healthy male and female volunteers.

C. pneumoniae = assay: Potency against C. pneumoniae compared with roxithromycin
Excerpt: The use of rifalazil in the treatment of PAOD is supported by both preclinical and clinical lines of evidence.

[2] = Single 25 mg rifalazil with Ortho-Novum 1/35 in post-menopausal female volunteers, adverse events; settings: human, in vivo
Protocol: In another study, a single oral dose of 25 mg rifalazil was administered and its effects on ethinyl estradiol and norethindrone levels administered as the contraceptive Ortho-Novum 1/35® in 16 healthy post-menopausal female volunteers for 14 days was determined. The incidence of AEs was similar between the two treatment periods, with 13 (93%) of the 14 subjects included in the safety population experiencing at least 1 AE during dosing with Ortho-Novum 1/35 alone and 12 (86%) during dosing with rifalazil and Ortho-Novum 1/35. Overall, 4 (29%) subjects experienced at least 1 AE considered by the Investigator to be at least possibly related to rifalazil. The most commonly reported rifalazil-related events were nausea (4 subjects, 29%); headache (3 subjects, 21%); and loose stools, feeling hot, rigors, and myalgia (2 subjects each, 14%).
The majority of AEs were of mild or moderate intensity. One subject experienced myalgia of severe intensity during dosing with rifalazil and Ortho-Novum 1/35 that was assessed as probably related to study medication. […] Two subjects withdrew from the study because of AEs during the Ortho-Novum 1/35 only dosing period; neither subject received rifalazil.

[3] = females, single oral dose 2.5 mg
[4] = females, single oral dose 12.5 mg
[5] = females, single oral dose 25 mg
[6] = males, single oral dose 12.5 mg

CO[C@H]1/C=C/O[C@@]2(C)Oc3c(C)c(O)c4c(=O)c(c5oc6cc(N7CCN(CC(C)C)CC7)cc(O)c6nc-5c4c3C2=O)NC(=O)/C(C)=C\C=C\[C@H](C)[C@H](O)[C@@H](C)[C@@H](O)[C@@H](C)[C@H](OC(C)=O)[C@@H]1C [rifalazil, 3′-hydroxy-5′-(4-isobutyl-1-piperazinyl) benzoxazinorifamycin]
duration of protective effect against re-infection with C. trachomatis (C. trachomatis): up to 12 days
Time to maximum concentration ([1]; after single dose administration (study conclusions)): 4 to 6 h
half-life ([1]; both, oral, elimination t1/2, study conclusions): 100 to 150 h
Tmax ([1]; both, po): 4.8 to 6.2 h
half-life ([1]; both, po, mean distribution t1/2, range across groups, single oral doses 2.5-25 mg, males and females): 4.5 to 8.6 h
half-life ([1]; both, po, mean elimination t1/2, range across groups, single oral doses 2.5-25 mg, males and females): 101 to 150 h
CL/F ([1]; female, po, 2.5 mg): 4.17 mL/min/kg
Tmax ([1]; female, po, 2.5 mg): 4.8 h
AUC(0-inf) ([1]; female, po, 2.5 mg, AUC0−∞ GMean (geometric mean), females, single oral dose 2.5 mg): 168 ng·h/mL
AUC(0-inf) ([1]; female, po, 2.5 mg, AUC0−∞ Mean, females, single oral dose 2.5 mg): 174 ng·h/mL
Cmax ([1]; female, po, 2.5 mg, Cmax GMean (geometric mean), females, single oral dose 2.5 mg): 7.1 ng/mL
Cmax ([1]; female, po, 2.5 mg, Cmax Mean, females, single oral dose 2.5 mg): 7.5 ng/mL
half-life ([1]; female, po, 2.5 mg, Distribution t1/2 Mean, females, single oral dose 2.5 mg): 5 h
half-life ([1]; female, po, 2.5 mg, Elimination t1/2 Mean, females, single oral dose 2.5 mg): 133 h
CL/F ([1]; female, po, 5 mg): 3.83 mL/min/kg
Tmax ([1]; female, po, 5 mg): 5 h
AUC(0-inf) ([1]; female, po, 5 mg, AUC0−∞ GMean (geometric mean), females, single oral dose 5 mg): 373 ng·h/mL
AUC(0-inf) ([1]; female, po, 5 mg, AUC0−∞ Mean, females, single oral dose 5 mg): 397 ng·h/mL
Cmax ([1]; female, po, 5 mg, Cmax GMean (geometric mean), females, single oral dose 5 mg): 13.5 ng/mL
Cmax ([1]; female, po, 5 mg, Cmax Mean, females, single oral dose 5 mg): 14.6 ng/mL
half-life ([1]; female, po, 5 mg, Distribution t1/2 Mean, females, single oral dose 5 mg): 4.5 h
half-life ([1]; female, po, 5 mg, Elimination t1/2 Mean, females, single oral dose 5 mg): 137 h
CL/F ([1]; female, po, 12.5 mg): 6.5 mL/min/kg
Tmax ([1]; female, po, 12.5 mg): 6.2 h
AUC(0-inf) ([1]; female, po, 12.5 mg, AUC0−∞ GMean (geometric mean), females, single oral dose 12.5 mg): 526 ng·h/mL
AUC(0-inf) ([1]; female, po, 12.5 mg, AUC0−∞ Mean, females, single oral dose 12.5 mg): 540 ng·h/mL
Cmax ([1]; female, po, 12.5 mg, Cmax GMean (geometric mean), females, single oral dose 12.5 mg): 19.9 ng/mL
Cmax ([1]; female, po, 12.5 mg, Cmax Mean, females, single oral dose 12.5 mg): 20.8 ng/mL
half-life ([1]; female, po, 12.5 mg, Distribution t1/2 Mean, females, single oral dose 12.5 mg): 6.1 h
half-life ([1]; female, po, 12.5 mg, Elimination t1/2 Mean, females, single oral dose 12.5 mg): 110 h
CL/F ([1]; female, po, 25 mg): 7.17 mL/min/kg
Tmax ([1]; female, po, 25 mg): 4.8 h
AUC(0-inf) ([1]; female, po, 25 mg, AUC0−∞ GMean (geometric mean), females, single oral dose 25 mg): 1020 ng·h/mL
AUC(0-inf) ([1]; female, po, 25 mg, AUC0−∞ Mean, females, single oral dose 25 mg): 1100 ng·h/mL
Cmax ([1]; female, po, 25 mg, Cmax GMean (geometric mean), females, single oral dose 25 mg): 33.3 ng/mL
Cmax ([1]; female, po, 25 mg, Cmax Mean, females, single oral dose 25 mg): 36.5 ng/mL
half-life ([1]; female, po, 25 mg, Distribution t1/2 Mean, females, single oral dose 25 mg): 7.8 h
half-life ([1]; female, po, 25 mg, Elimination t1/2 Mean, females, single oral dose 25 mg): 150 h
Vdβ/F Mean [1, 3]: 45.0 L/kg
AUC0−∞/Dose Mean [1, 3]: 4274.6
Cmax/Dose Mean [1, 3]: 183.1
Vdβ/F Mean ([1]; females, single oral dose 5 mg): 41.6 L/kg
AUC0−∞/Dose Mean ([1]; females, single oral dose 5 mg): 5124.5
Cmax/Dose Mean ([1]; females, single oral dose 5 mg): 185.1
Vdβ/F Mean [1, 4]: 61.6 L/kg
AUC0−∞/Dose Mean [1, 4]: 2759.4
Cmax/Dose Mean [1, 4]: 106.9
Vdβ/F Mean [1, 5]: 82.8 L/kg
AUC0−∞/Dose Mean [1, 5]: 2796.3
Cmax/Dose Mean [1, 5]: 91.3
CL/F ([1]; male, po, 2.5 mg): 3.5 mL/min/kg
Tmax ([1]; male, po, 2.5 mg): 5.3 h
AUC(0-inf) ([1]; male, po, 2.5 mg, AUC0−∞ GMean (geometric mean), males, single oral dose 2.5 mg): 172 ng·h/mL
AUC(0-inf) ([1]; male, po, 2.5 mg, AUC0−∞ Mean, males, single oral dose 2.5 mg): 188 ng·h/mL
Cmax ([1]; male, po, 2.5 mg, Cmax GMean (geometric mean), males, single oral dose 2.5 mg): 7.8 ng/mL
Cmax ([1]; male, po, 2.5 mg, Cmax Mean, males, single oral dose 2.5 mg): 8.4 ng/mL
half-life ([1]; male, po, 2.5 mg, Distribution t1/2 Mean, males, single oral dose 2.5 mg): 5.3 h
half-life ([1]; male, po, 2.5 mg, Elimination t1/2 Mean, males, single oral dose 2.5 mg): 101 h
CL/F ([1]; male, po, 12.5 mg): 5.5 mL/min/kg
Tmax ([1]; male, po, 12.5 mg): 5 h
AUC(0-inf) ([1]; male, po, 12.5 mg, AUC0−∞ GMean (geometric mean), males, single oral dose 12.5 mg): 528 ng·h/mL
AUC(0-inf) ([1]; male, po, 12.5 mg, AUC0−∞ Mean, males, single oral dose 12.5 mg): 552 ng·h/mL
Cmax ([1]; male, po, 12.5 mg, Cmax GMean (geometric mean), males, single oral dose 12.5 mg): 19.2 ng/mL
Cmax ([1]; male, po, 12.5 mg, Cmax Mean, males, single oral dose 12.5 mg): 19.7 ng/mL
half-life ([1]; male, po, 12.5 mg, Distribution t1/2 Mean, males, single oral dose 12.5 mg): 7.7 h
half-life ([1]; male, po, 12.5 mg, Elimination t1/2 Mean, males, single oral dose 12.5 mg): 134 h
CL/F ([1]; male, po, 25 mg): 8 mL/min/kg
Tmax ([1]; male, po, 25 mg): 5 h
AUC(0-inf) ([1]; male, po, 25 mg, AUC0−∞ GMean (geometric mean), males, single oral dose 25 mg): 656 ng·h/mL
AUC(0-inf) ([1]; male, po, 25 mg, AUC0−∞ Mean, males, single oral dose 25 mg): 683 ng·h/mL
Cmax ([1]; male, po, 25 mg, Cmax GMean (geometric mean), males, single oral dose 25 mg): 23.9 ng/mL
Cmax ([1]; male, po, 25 mg, Cmax Mean, males, single oral dose 25 mg): 24.7 ng/mL
half-life ([1]; male, po, 25 mg, Distribution t1/2 Mean, males, single oral dose 25 mg): 8.7 h
half-life ([1]; male, po, 25 mg, Elimination t1/2 Mean, males, single oral dose 25 mg): 116 h
Vdβ/F Mean ([1]; males, single oral dose 2.5 mg): 25.4 L/kg
AUC0−∞/Dose Mean ([1]; males, single oral dose 2.5 mg): 6084.0
Cmax/Dose Mean ([1]; males, single oral dose 2.5 mg): 269.6
Vdβ/F Mean [1, 6]: 62.3 L/kg
AUC0−∞/Dose Mean [1, 6]: 3299.8
Cmax/Dose Mean [1, 6]: 117.4
Vdβ/F Mean ([1]; males, single oral dose 25 mg): 74.2 L/kg
AUC0−∞/Dose Mean ([1]; males, single oral dose 25 mg): 2273.8
Cmax/Dose Mean ([1]; males, single oral dose 25 mg): 82.0
potency against C. pneumoniae relative to roxithromycin (C. pneumoniae): 2000 times
subjects experiencing at least 1 AE ([2]; female): 86%
deaths or other serious AEs [2]: No deaths or other serious AEs
subjects with transient Grade 3 decreases in absolute lymphocyte count (ALC<0.5×10^3/mm^3) [2]: two
